What was measured:
[1] = format: in vivo, rat; conditions: rats, oral (gastric gavage), 50 mg CDP-choline, 24 hours
Description: The labelled carbon atom is that of the methyl group of the choline moiety.
At different time intervals a certain amount of blood is collected and, after 24 hours from the beginning of the experiment, the animals are sacrificed. The amount of radioactivity is measured in predetermined serum volumes or weight of the various organs or tissues.
The values are expressed as c.p.m.x 10^-3 /gram of organ or tissue.

[2] = Serum kinetics and absolute bioavailability of ^14 C-labelled CDP-choline and "ASONIC" after i.v. and oral administration in Cynomolgus monkeys; format: in vivo, Cynomolgus monkey; conditions: for Plasmatic concentration: average and S.D. of 2 monkeys
Description: From the end of the curves serum concentration/time, it was possible to calculate the constant of the apparent elimination speed from the organism as well as the relative half-life. These values were utilized in calculating the AUC T30 hours →T.infin. for the total of the curves concentration/time in the same animal. The AUC To →T30 hrs was calculated by means of the trapezium methods. […] For each dosage, a randomized cross-over procedure was used. Seriated blood samples were collected until 30 hours after each administration. From the single curves concentration/time it was possible to calculate the AUC To →T30 hrs. After each administration, including the intravenous one, urine was collected at the following time intervals: 0-24 hours, 24-48 hours and 48-72 hours.

Question: Which “Radioactivity value in brain” value [1] does the source give for `C[N+](C)(C)CCOP(=O)(O)OP(=O)([O-])OC[C@H]1O[C@@H](n2ccc(N)nc2=O)[C@H](O)[C@@H]1O` [CDP-choline, cytidine diphosphocholine] here?
Answer: 1.55 c.p.m.x 10^-3 /gram of organ o

Question: And the “Radioactivity value in kidney” value [1]?
Answer: 46.3 c.p.m.x 10^-3 /gram of organ o

Question: What about the “Radioactivity value in liver” value [1] of the same compound?
Answer: 65.4 c.p.m.x 10^-3 /gram of organ o

Question: What about the “Radioactivity value in muscle” value [1] of the same compound?
Answer: 3.1 c.p.m.x 10^-3 /gram of organ o

Question: What about the Plasmatic concentration ([2]; 25 mg/kg i.v., 5') of the same compound?
Answer: 10561 ± 2620 DPM/ml serum

Question: What about the Plasmatic concentration ([2]; 25 mg/kg i.v., 15') of the same compound?
Answer: 4088 ± 1299 DPM/ml serum

Question: What about the Plasmatic concentration ([2]; 25 mg/kg i.v., 30') of the same compound?
Answer: 2846 ± 877 DPM/ml serum

Question: And the Plasmatic concentration ([2]; 25 mg/kg i.v., 60')?
Answer: 2127 ± 704 DPM/ml serum

Question: And the Plasmatic concentration ([2]; 25 mg/kg i.v., 2 hr)?
Answer: 2397 ± 329 DPM/ml serum

Question: What about the Plasmatic concentration ([2]; 25 mg/kg i.v., 4 hr) of the same compound?
Answer: 3064 ± 431 DPM/ml serum

Question: And the Plasmatic concentration ([2]; 25 mg/kg i.v., 7 hr)?
Answer: 3566 ± 631 DPM/ml serum

Question: What about the Plasmatic concentration ([2]; 25 mg/kg i.v., 24 hr) of the same compound?
Answer: 2035 ± 315 DPM/ml serum

Question: What about the Plasmatic concentration ([2]; 25 mg/kg i.v., 30 hr) of the same compound?
Answer: 1947 ± 280 DPM/ml serum

Question: What about the Plasmatic concentration ([2]; 200 mg/kg per os, 15') of the same compound?
Answer: 61 DPM/ml serum

Question: What about the Plasmatic concentration ([2]; 200 mg/kg per os, 30') of the same compound?
Answer: 45 DPM/ml serum

Question: What about the Plasmatic concentration ([2]; 200 mg/kg per os, 45') of the same compound?
Answer: 56 ± 4 DPM/ml serum

Question: What about the Plasmatic concentration ([2]; 200 mg/kg per os, 60') of the same compound?
Answer: 91 ± 4.2 DPM/ml serum

Question: And the Plasmatic concentration ([2]; 200 mg/kg per os, 4 hr)?
Answer: 154 ± 26 DPM/ml serum

Question: What about the Plasmatic concentration ([2]; 200 mg/kg per os, 7 hr) of the same compound?
Answer: 774 ± 110 DPM/ml serum

Question: What about the Plasmatic concentration ([2]; 200 mg/kg per os, 9 hr) of the same compound?
Answer: 669 ± 105 DPM/ml serum

Question: What about the Plasmatic concentration ([2]; 200 mg/kg per os, 24 hr) of the same compound?
Answer: 378 ± 55 DPM/ml serum

Question: And the Plasmatic concentration ([2]; 200 mg/kg per os, 30 hr)?
Answer: 344 ± 58 DPM/ml serum

Question: And the Plasmatic concentration ([2]; 400 mg/kg per os, 30')?
Answer: 35 DPM/ml serum

Question: And the Plasmatic concentration ([2]; 400 mg/kg per os, 60')?
Answer: 61 ± 12 DPM/ml serum

Question: What about the Plasmatic concentration ([2]; 400 mg/kg per os, 90') of the same compound?
Answer: 40 ± 16 DPM/ml serum

Question: And the Plasmatic concentration ([2]; 400 mg/kg per os, 2 hr)?
Answer: 78 ± 4.2 DPM/ml serum

Question: And the Plasmatic concentration ([2]; 400 mg/kg per os, 3 hr)?
Answer: 181 ± 9.2 DPM/ml serum

Question: What about the Plasmatic concentration ([2]; 400 mg/kg per os, 4 hr) of the same compound?
Answer: 448 ± 66 DPM/ml serum

Question: And the Plasmatic concentration ([2]; 400 mg/kg per os, 6 hr)?
Answer: 1496 ± 134 DPM/ml serum

Question: What about the Plasmatic concentration ([2]; 400 mg/kg per os, 7 hr) of the same compound?
Answer: 2636 ± 107 DPM/ml serum

Question: What about the Plasmatic concentration ([2]; 400 mg/kg per os, 8 hr) of the same compound?
Answer: 4163 ± 101 DPM/ml serum

Question: What about the Plasmatic concentration ([2]; 400 mg/kg per os, 9 hr) of the same compound?
Answer: 4813 ± 513 DPM/ml serum

Question: And the Plasmatic concentration ([2]; 400 mg/kg per os, 24 hr)?
Answer: 536 ± 122 DPM/ml serum

Question: What about the Plasmatic concentration ([2]; 400 mg/kg per os, 30 hr) of the same compound?
Answer: 470 ± 98 DPM/ml serum

Question: What about the Serum concentration ([2]; monkey no. 1, 25 mg/kg i.v., 5') of the same compound?
Answer: 8708 DPM/ml

Question: What about the Serum concentration ([2]; monkey no. 1, 25 mg/kg i.v., 15') of the same compound?
Answer: 3169 DPM/ml

Question: And the Serum concentration ([2]; monkey no. 1, 25 mg/kg i.v., 30')?
Answer: 2226 DPM/ml

Question: And the Serum concentration ([2]; monkey no. 1, 25 mg/kg i.v., 60')?
Answer: 1629 DPM/ml

Question: And the Serum concentration ([2]; monkey no. 1, 25 mg/kg i.v., 2 hr)?
Answer: 2165 DPM/ml

Question: What about the Serum concentration ([2]; monkey no. 1, 25 mg/kg i.v., 4 hr) of the same compound?
Answer: 2760 DPM/ml

Question: What about the Serum concentration ([2]; monkey no. 1, 25 mg/kg i.v., 7 hr) of the same compound?
Answer: 3120 DPM/ml

Question: And the Serum concentration ([2]; monkey no. 1, 25 mg/kg i.v., 24 hr)?
Answer: 1812 DPM/ml

Question: What about the Serum concentration ([2]; monkey no. 1, 25 mg/kg i.v., 30 hr) of the same compound?
Answer: 1749 DPM/ml

Question: And the Serum concentration ([2]; monkey no. 1, 200 mg/kg per os, 30')?
Answer: 45 DPM/ml

Question: And the Serum concentration ([2]; monkey no. 1, 200 mg/kg per os, 45')?
Answer: 53 DPM/ml

Question: What about the Serum concentration ([2]; monkey no. 1, 200 mg/kg per os, 60') of the same compound?
Answer: 88 DPM/ml

Question: What about the Serum concentration ([2]; monkey no. 1, 200 mg/kg per os, 7 hr) of the same compound?
Answer: 852 DPM/ml

Question: And the Serum concentration ([2]; monkey no. 1, 200 mg/kg per os, 9 hr)?
Answer: 743 DPM/ml

Question: And the Serum concentration ([2]; monkey no. 1, 200 mg/kg per os, 24 hr)?
Answer: 339 DPM/ml

Question: And the Serum concentration ([2]; monkey no. 1, 400 mg/kg per os, 30')?
Answer: 35 DPM/ml

Question: And the Serum concentration ([2]; monkey no. 1, 400 mg/kg per os, 60')?
Answer: 52 DPM/ml

Question: What about the Serum concentration ([2]; monkey no. 1, 400 mg/kg per os, 90') of the same compound?
Answer: 29 DPM/ml

Question: What about the Serum concentration ([2]; monkey no. 1, 400 mg/kg per os, 2 hr) of the same compound?
Answer: 75 DPM/ml

Question: And the Serum concentration ([2]; monkey no. 1, 400 mg/kg per os, 3 hr)?
Answer: 187 DPM/ml

Question: And the Serum concentration ([2]; monkey no. 1, 400 mg/kg per os, 4 hr)?
Answer: 401 DPM/ml

Question: What about the Serum concentration ([2]; monkey no. 1, 400 mg/kg per os, 6 hr) of the same compound?
Answer: 1590 DPM/ml

Question: What about the Serum concentration ([2]; monkey no. 1, 400 mg/kg per os, 7 hr) of the same compound?
Answer: 2712 DPM/ml

Question: And the Serum concentration ([2]; monkey no. 1, 400 mg/kg per os, 8 hr)?
Answer: 4092 DPM/ml

Question: And the Serum concentration ([2]; monkey no. 1, 400 mg/kg per os, 9 hr)?
Answer: 5175 DPM/ml

Question: What about the Serum concentration ([2]; monkey no. 1, 400 mg/kg per os, 24 hr) of the same compound?
Answer: 622 DPM/ml

Question: What about the Serum concentration ([2]; monkey no. 1, 400 mg/kg per os, 30 hr) of the same compound?
Answer: 540 DPM/ml

Question: And the Serum concentration ([2]; monkey no. 2, 25 mg/kg i.v., 5')?
Answer: 12414 DPM/ml

Question: What about the Serum concentration ([2]; monkey no. 2, 25 mg/kg i.v., 15') of the same compound?
Answer: 5007 DPM/ml

Question: What about the Serum concentration ([2]; monkey no. 2, 25 mg/kg i.v., 30') of the same compound?
Answer: 3467 DPM/ml

Source: patent publication US4386077A (Made Italiana s.r.l, priority 1981, dated 1983)
